Measured values from BindingDB's records for doi:10.1021/jm950922q (University of North Carolina at Chapel Hill, 1996).

Molecular target: HIV-RT (HIV reverse transcriptase)
Assay: Inhibitory activity against HIV-RT

Compound | IC50
C=C(C)[C@@H]1CC[C@]2(C(=O)O)CC[C@]3(C)[C@H](CC[C@@H]4[C@@]5(C)CC[C@H](O)C(C)(C)[C@@H]5CC[C@]43C)[C@@H]12 | > 219 µM
CC(C)[C@@H]1CC[C@]2(C(=O)O)CC[C@]3(C)[C@H](CC[C@@H]4[C@@]5(C)CC[C@H](OC(=O)CC(C)(C)C(=O)O)C(C)(C)[C@@H]5CC[C@]43C)[C@@H]12 [2,2-Dimethyl-succinic acid 4-((1S,3aS,5aR,5bR,7aR,9S,11aR,11bR,13aR,13bR)-3a-carboxy-1-isopropyl-5a,5b,8,8,11a-pentamethyl-icosahydro-cyclopenta[a]chrysen-9-yl) ester] | > 171 µM
C=C(C)[C@@H]1CC[C@]2(C(=O)O)CC[C@]3(C)[C@H](CC[C@@H]4[C@@]5(C)CC[C@H](OC(=O)CC(C)(C)CC(=O)O)C(C)(C)[C@@H]5CC[C@]43C)[C@@H]12 [3,3-Dimethyl-pentanedioic acid mono-((1R,3aS,5aR,5bR,7aR,9S,11aR,11bR,13aR,13bR)-3a-carboxy-1-isopropenyl-5a,5b,8,8,11a-pentamethyl-icosahydro-cyclopenta[a]chrysen-9-yl) ester] | > 167 µM
CC(C)[C@@H]1CC[C@]2(C(=O)O)CC[C@]3(C)[C@H](CC[C@@H]4[C@@]5(C)CC[C@H](OC(=O)CC(C)(C)CC(=O)O)C(C)(C)[C@@H]5CC[C@]43C)[C@@H]12 [3,3-Dimethyl-pentanedioic acid mono-((1S,3aS,5aR,5bR,7aR,9S,11aR,11bR,13aR,13bR)-3a-carboxy-1-isopropyl-5a,5b,8,8,11a-pentamethyl-icosahydro-cyclopenta[a]chrysen-9-yl) ester] | > 167 µM
C=C(C)[C@@H]1CC[C@]2(C(=O)O)CC[C@]3(C)[C@H](CC[C@@H]4[C@@]5(C)CC[C@H](OC(=O)COCC(=O)O)C(C)(C)[C@@H]5CC[C@]43C)[C@@H]12 [(1R,3aS,5aR,5bR,7aR,9S,11aR,11bR,13aR,13bR)-9-(2-Carboxymethoxy-acetoxy)-1-isopropenyl-5a,5b,8,8,11a-pentamethyl-icosahydro-cyclopenta[a]chrysene-3a-carboxylic acid] | > 175 µM
C=C(C)[C@@H]1CC[C@]2(C(=O)O)CC[C@]3(C)[C@H](CC[C@@H]4[C@@]5(C)CC[C@H](OC(=O)C(C)(C)CC(=O)O)C(C)(C)[C@@H]5CC[C@]43C)[C@@H]12 [(1R,3aS,5aR,5bR,7aR,9S,11aR,11bR,13aR,13bR)-9-(3-carboxy-2,2-dimethylpropanoyloxy)-5a,5b,8,8,11a-pentamethyl-1-(prop-1-en-2-yl)icosahydro-1H-cyclopenta[a]chrysene-3a-carboxylic acid] | > 171 µM
CC(C)[C@@H]1CC[C@]2(C(=O)O)CC[C@]3(C)[C@H](CC[C@@H]4[C@@]5(C)CC[C@H](OC(=O)COCC(=O)O)C(C)(C)[C@@H]5CC[C@]43C)[C@@H]12 [(1S,3aS,5aR,5bR,7aR,9S,11aR,11bR,13aR,13bR)-9-(2-Carboxymethoxy-acetoxy)-1-isopropyl-5a,5b,8,8,11a-pentamethyl-icosahydro-cyclopenta[a]chrysene-3a-carboxylic acid] | > 174 µM
CC(C)[C@@H]1CC[C@]2(C(=O)O)CC[C@]3(C)[C@H](CC[C@@H]4[C@@]5(C)CC[C@H](O)C(C)(C)[C@@H]5CC[C@]43C)[C@@H]12 [Dihydrobetulinic acid] | > 218 µM
